{
  "source": "patent US20160175379A1",
  "about": "“COMBINATION THERAPY FOR THE TREATMENT OF ISCHEMIA-REPERFUSION INJURY” (STEALTH BIO THERAPEUTICS CORP, priority 2013, published 2016)",
  "key": {"[1]": {"system": "cardiac ischemia-reperfusion injury", "experiment": "Large animal model of acute myocardial infarction injury (cardiac ischemia-reperfusion)", "assay_type": "in vivo, sheep or pig", "settings": "peptide given prior to ischemia", "method": "The effects of aromatic-cationic peptides and cardiovascular agent in protecting against cardiac ischemia-reperfusion injury in a large animal model (e.g., a porcine or ovine model) are investigated.\nThe animals are sedated with intramuscular ketamine (50 mg/kg), glycopyrrolate (0.2 mg/kg), and buprenorphine (0.05 mg/kg). After intubation, animals are ventilated with a mechanical respirator (Hallowell EMC Model AWS; Hallowell, Pittsfield, Mass.) using room air enriched with 0.6 L/min oxygen. Catheters are introduced into a small auricular artery and vein, and into the right jugular vein for the continuous measurement of blood pressure and the administration of intravenous medications. […] Heart rate, blood pressure, surface electrocardiogram, and rectal temperature are continuously monitored (Hewlett Packard 78534C; Palo Alto, Calif.). […]\nAnimals undergo a left thoracotomy, and silicone vascular loops (Quest Medical, Allen, Tex.) are placed around the left anterior descending artery and its second diagonal branch, which is 40% of the distance from the apex to the base of the heart. […] Arterial blood pressure, heart rate, surface electrocardiograms (ECG), and rectal temperature are continuously monitored (Hewlett Packard 78534C; Palo Alto, Calif.) throughout the protocol in all animals. […]"}, "[2]": {"system": "acute myocardial infarction injury", "experiment": "Acute myocardial infarction injury (ischemia/reperfusion) in a rabbit model", "assay_type": "in vivo, New Zealand white rabbits", "settings": "30 min ischemia, 3 h reperfusion, IV infusion, compared to the control (vehicle alone) group", "method": "The effects of a combination of aromatic-cationic peptides and a cardiovascular agent in protecting against an acute myocardial infarction injury in a rabbit model are investigated.\nNew Zealand white rabbits are used in this study. The rabbits are males and >10 weeks in age. Environmental controls in the animal rooms are set to maintain temperatures of 61° to 72° F. and relative humidity between 30% and 70%. Room temperature and humidity are recorded hourly, and monitored daily. There are approximately 10-15 air exchanges per hour in the animal rooms. Photoperiod is 12-hr light/12-hr dark (via fluorescent lighting) with exceptions as necessary to accommodate dosing and data collection. Routine daily observations are performed. Harlan Teklad, Certified Diet (2030C), rabbit diet is provided approximately 180 grams per day from arrival to the facility. […]\nIn all cases, treatments are started approximately 10 min after the onset of a 30 min ischemic insult (coronary occlusion) and continued for up to 3 h following reperfusion. In all cases, cardiovascular function is monitored both prior to and during ischemia, as well as for up to 180 min (3 h) post-reperfusion. The experiments are terminated 3 h post-reperfusion (end of study); irreversible myocardial injury (infarct size by histomorphometery) at this time-point is evaluated, and is the primary-end-point of the study. […]"}},
  "data": [
    {"substance": "D-Arg-2′6′-Dmt-Lys-Phe-NH2 [peptide]", "values": [
      {"measurement": "redox ratio (RR) during ischemia", "setting": "[1]", "result": "blunted drop in the RR during ischemia"},
      {"measurement": "infarct size and apoptotic cell death", "setting": "[2]", "result": "significantly reduced"}
    ]}
  ]
}
